{"source": "patent US20100203024A1", "about": "(priority 2006, published 2010)", "origin": "cited, not measured here", "test_system": "non-small-cell lung cancer", "conditions": "patients with refractory disease"}
{"smiles": "C#Cc1cccc(Nc2ncnc3cc(OCCOC)c(OCCOC)cc23)c1", "note": "[erlotinib]", "values": [{"measurement": "partial responses, percent of patients", "result": 9, "unit": "%"}]}
